Measured values as given in patent US20100216827A1 (Metabolex, Inc., priority 2008, published 2010).
Like-named read-outs stand apart in the source and are kept apart here.

Target: T1, human GPR120 (Homo sapiens, UniProt Q5NUL3)
T1 construct: host or cells: HEK293 cells coexpressing Gqi5
T1 sequence (Q5NUL3 1-361): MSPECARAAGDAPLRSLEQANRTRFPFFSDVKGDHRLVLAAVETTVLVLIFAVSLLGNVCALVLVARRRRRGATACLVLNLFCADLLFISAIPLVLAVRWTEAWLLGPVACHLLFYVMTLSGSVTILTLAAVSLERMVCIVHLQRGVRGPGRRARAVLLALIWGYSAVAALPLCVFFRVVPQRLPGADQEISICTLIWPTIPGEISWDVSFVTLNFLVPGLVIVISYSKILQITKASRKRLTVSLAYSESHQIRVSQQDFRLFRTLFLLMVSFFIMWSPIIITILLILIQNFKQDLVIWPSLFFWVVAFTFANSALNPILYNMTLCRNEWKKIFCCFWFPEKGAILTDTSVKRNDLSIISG
Assay: Intracellular Ca2+ (FLIPR Calcium 4, Flexstation) assay in human GPR120 stable HEK293 cell line coexpressing Gqi5
Format: cell-based
Conditions: for % Activity at 5 μM: 5 μM compound compared to the maximal activity of GW9508 at 6.7 μM (100%); for EC50: human GPR120 stably expressing cells, 8 concentrations 0.00001 to 20 μM
Summary of the method: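 Calcium 4 dye-loaded HEK293 cells expressing N-terminally Flag-tagged human GPR120 with Gqi5 (HBSS/20 mM HEPES, pH 7.4; 50 min, 37 °C). Fluorescence (485/525 nm) read for 90 s after addition of compound at 8 concentrations, 0.00001–20 μM; EC50 from Max−Min change. % activity at 5 μM versus maximal GW9508 response (6.7 μM).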

[1] = read-out: EC50 between >1 μM and ≦10 μM

Row | Structure (SMILES) | % Activity at 5 μM | EC50 [1] | EC50 (read-out: EC50 ≦ 1 μM) | EC50 (read-out: EC50 > 10 μM)
1 | Cc1cc(COc2c(F)cc(C3=C(C(=O)O)CCC3)cc2F)n(-c2ccc(Cl)cc2)n1 [Example 107, 2-(4-((1-(4-Chlorophenyl)-3-methyl-1H-pyrazol-5-yl)methoxy)-3,5-difluorophenyl)cyclopent-1-enecarboxylic acid] | 32% | 1000 to 10000 nM | – | –
2 | Cc1cc(COc2ccc(CC(C)C(=O)O)cc2F)n(-c2ccc(Cl)cc2)n1 (centres unmarked) [Example 108, 3-(4-((1-(4-Chlorophenyl)-3-methyl-1H-pyrazol-5-yl)methoxy)-3-fluorophenyl)-2-methylpropanoic acid] | 106% | – | ≤ 1000 nM | –
3 | Cc1cc(COc2ccc(CC(C)C(=O)O)cc2C)n(-c2ccc(Cl)cc2)n1 (centres unmarked) [Example 109, 3-(4-((1-(4-Chlorophenyl)-3-methyl-1H-pyrazol-5-yl)methoxy)-3-methylphenyl)-2-methylpropanoic acid] | 114% | – | ≤ 1000 nM | –
4 | Cc1cc(COc2c(F)cc(CC(C)C(=O)O)cc2F)n(-c2ncc(Cl)cn2)n1 (centres unmarked) [Example 110, 3-(4-((1-(5-Chloropyrimidin-2-yl)-3-methyl-1H-pyrazol-5-yl)methoxy)-3,5-difluorophenyl)-2-methylpropanoic acid] | 19% | – | – | > 10000 nM
5 | Cc1cc(COc2ccc(C=C3CC(C(=O)O)C3)cc2)n(-c2ccc(Cl)cc2)n1 (centres unmarked) [Example 111, 3-(4-((1-(4-Chlorophenyl)-3-methyl-1H-pyrazol-5-yl)methoxy)benzylidene)cyclobutanecarboxylic acid] | 80% | – | ≤ 1000 nM | –
6 | COc1cc(CC(C)C(=O)O)ccc1OCc1cc(C)nn1-c1ccc(Cl)cc1 (centres unmarked) [Example 112, 3-(4-((1-(4-Chlorophenyl)-3-methyl-1H-pyrazol-5-yl)methoxy)-3-methoxyphenyl)-2-methylpropanoic acid] | 83% | 1000 to 10000 nM | – | –
7 | Cc1cc(COc2c(Cl)cc(CC(C)C(=O)O)cc2Cl)n(-c2ccc(Cl)cc2)n1 (centres unmarked) [Example 113, 3-(3,5-Dichloro-4-((1-(4-chlorophenyl)-3-methyl-1H-pyrazol-5-yl)methoxy)phenyl)-2-methylpropanoic acid] | 92% | – | ≤ 1000 nM | –
8 | CC(Cc1cc(F)c(OCc2c(C(F)(F)F)nn(C)c2Oc2ccccc2)c(F)c1)C(=O)O (centres unmarked) [Example 114, 3-(3,5-Difluoro-4-((1-methyl-5-phenoxy-3-(trifluoromethyl)-1H-pyrazol-4-yl)methoxy)phenyl)-2-methylpropanoic acid] | 111% | – | ≤ 1000 nM | –
9 | CC(Cc1cc(F)c(OCc2c(C(F)(F)F)nn(C)c2Oc2ccc(Cl)cc2)c(F)c1)C(=O)O (centres unmarked) [Example 115, 3-(4-((5-(4-Chlorophenoxy)-1-methyl-3-(trifluoromethyl)-1H-pyrazol-4-yl)methoxy)-3,5-difluorophenyl)-2-methylpropanoic Acid] | 118% | – | ≤ 1000 nM | –
10 | Cc1cc(COc2c(F)cc(CC(C)C(=O)O)cc2F)c(-c2ccccc2)o1 (centres unmarked) [Example 116, 3-(3,5-Difluoro-4-((5-methyl-2-phenylfuran-3-yl)methoxy)phenyl)-2-methylpropanoic acid] | 115% | – | ≤ 1000 nM | –
11 | CC(Cc1cc(F)c(OCc2cc(C(F)(F)F)nn2-c2ccc(Cl)cc2)c(F)c1)C(=O)O (centres unmarked) [Example 117, 3-(4-((1-(4-chlorophenyl)-3-(trifluoromethyl)-1H-pyrazol-5-yl)methoxy)-3,5-difluorophenyl)-2-methylpropanoic acid] | 105% | – | ≤ 1000 nM | –
12 | CCc1cc(OCc2cc(C)nn2-c2ccc(Cl)cc2)ccc1CCC(=O)O [Example 118, 3-(4-((1-(4-chlorophenyl)-3-methyl-1H-pyrazol-5-yl)methoxy)-2-ethylphenyl)propanoic acid] | 103% | – | ≤ 1000 nM | –
13 | O=C(O)CC1CCc2cc(OCc3cc(C(F)(F)F)nn3-c3ccc(Cl)cc3)ccc21 (centres unmarked) [Example 119, 2-(5-((1-(4-chlorophenyl)-3-(trifluoromethyl)-1H-pyrazol-5-yl)methoxy)-2,3-dihydro-1H-inden-1-yl)acetic acid] | 92% | – | – | –
14 | Cc1cc(COc2ccc3c(c2)CCC3CC(=O)O)n(-c2ccc3c(c2)CCC3)n1 (centres unmarked) [Example 120, 2-(5-((1-(2,3-dihydro-1H-inden-5-yl)-3-methyl-1H-pyrazol-5-yl)methoxy)-2,3-dihydro-1H-inden-1-yl)acetic acid] | 94% | – | ≤ 1000 nM | –
15 | CCc1ccc(-n2nc(C)cc2COc2ccc3c(c2)CCC3CC(=O)O)cc1 (centres unmarked) [Example 121, 2-(5-((1-(4-ethylphenyl)-3-methyl-1H-pyrazol-5-yl)methoxy)-2,3-dihydro-1H-inden-1-yl)acetic acid] | 94% | – | ≤ 1000 nM | –
16 | Cc1cc(COc2c(F)cc(CC(C)C(=O)O)cc2F)n(-c2ccccc2)n1 (centres unmarked) [Example 122, 3-(3,5-difluoro-4-((3-methyl-1-phenyl-1H-pyrazol-5-yl)methoxy)phenyl)-2-methylpropanoic acid] | 91% | – | ≤ 1000 nM | –
17 | CCc1ccc(-n2nc(C)cc2COc2ccc3c(c2)CCCC3CC(=O)O)cc1 (centres unmarked) [Example 123, 2-(6-((1-(4-ethylphenyl)-3-methyl-1H-pyrazol-5-yl)methoxy)-1,2,3,4-tetrahydronaphthalen-1-yl)acetic acid] | 67% | – | – | > 10000 nM
18 | Cc1cc(COc2c(F)cc(CC(C)C(=O)O)cc2F)n(-c2ccccn2)n1 (centres unmarked) [Example 124, 3-(3,5-difluoro-4-((3-methyl-1-(pyridin-2-yl)-1H-pyrazol-5-yl)methoxy)phenyl)-2-methylpropanoic acid] | 33% | – | – | > 10000 nM
19 | Cc1cc(COc2ccc(C(C)(C)CC(=O)O)cc2)n(-c2ccc(Cl)cc2)n1 [Example 125, 3-(4-((1-(4-chlorophenyl)-3-methyl-1H-pyrazol-5-yl)methoxy)phenyl)-3-methylbutanoic acid] | 47% | 1000 to 10000 nM | – | –
20 | CCc1ccc(-n2nc(C)cc2COc2ccc(C(C)(C)CC(=O)O)cc2)cc1 [Example 126, 3-(4-((1-(4-ethylphenyl)-3-methyl-1H-pyrazol-5-yl)methoxy)phenyl)-3-methylbutanoic acid] | 48% | 1000 to 10000 nM | – | –
21 | Cc1cc(COc2ccc(CCCC(=O)O)cc2)n(-c2ccc(Cl)cc2)n1 [Example 127, 4-(4-((1-(4-chlorophenyl)-3-methyl-1H-pyrazol-5-yl)methoxy)phenyl)butanoic acid] | 112% | – | ≤ 1000 nM | –
22 | Cc1cc(COc2c(F)cc(CCCC(=O)O)cc2F)n(-c2ccc(Cl)cc2)n1 [Example 128, 4-(4-((1-(4-chlorophenyl)-3-methyl-1H-pyrazol-5-yl)methoxy)-3,5-difluorophenyl)butanoic acid] | 112% | – | ≤ 1000 nM | –
23 | CCc1ccc(-n2nc(C)cc2COc2ccc(CCCC(=O)O)cc2)cc1 [Example 129, 4-(4-((1-(4-ethylphenyl)-3-methyl-1H-pyrazol-5-yl)methoxy)phenyl)butanoic acid] | 99% | – | ≤ 1000 nM | –
24 | CCc1ccc(-n2nc(C)cc2COc2c(F)cc(CCCC(=O)O)cc2F)cc1 [Example 130, 4-(4-((1-(4-ethylphenyl)-3-methyl-1H-pyrazol-5-yl)methoxy)-3,5-difluorophenyl)butanoic acid] | 103% | – | ≤ 1000 nM | –
25 | Cc1cc(COc2ccc(CCC(C)C(=O)O)cc2)n(-c2ccc(Cl)cc2)n1 (centres unmarked) [Example 131, 4-(4-((1-(4-chlorophenyl)-3-methyl-1H-pyrazol-5-yl)methoxy)phenyl)-2-methylbutanoic acid] | 68% | 1000 to 10000 nM | – | –
26 | CCc1ccc(-n2nc(C)cc2COc2ccc(CCC(C)C(=O)O)cc2)cc1 (centres unmarked) [Example 132, 4-(4-((1-(4-ethylphenyl)-3-methyl-1H-pyrazol-5-yl)methoxy)phenyl)-2-methylbutanoic acid] | 85% | 1000 to 10000 nM | – | –
27 | COc1cc(CCC(=O)O)ccc1OCc1cc(C)nn1-c1ccc(Cl)cc1 [Example 133, 3-(4-((1-(4-chlorophenyl)-3-methyl-1H-pyrazol-5-yl)methoxy)-3-methoxyphenyl)propanoic acid] | 107% | 1000 to 10000 nM | – | –
